This note sets out measurements from patent US10336762B2 (priority 2017, dated 2019).

Where only a bound is given, the exact number is not on record here.

Experiment [1] has as its system TNFα. Kind of experiment: cells. The format is cell-based, human. Conditions: Homo sapiens, Monocyte, LPS-stimulated human monocytes, TNFα content; read-out: EC50 TNF.
Experiment [2] deals with IRAK4 enzyme (Homo sapiens (Human), UniProt Q9NWZ3). The experiment can be described thus: biochemical. Type of experiment: biochemical. Conditions: IRAK4 enzyme, TR-FRET (HTRF), 500 μM ATP.
IRAK4 enzyme, sequence (Q9NWZ3 whole entry): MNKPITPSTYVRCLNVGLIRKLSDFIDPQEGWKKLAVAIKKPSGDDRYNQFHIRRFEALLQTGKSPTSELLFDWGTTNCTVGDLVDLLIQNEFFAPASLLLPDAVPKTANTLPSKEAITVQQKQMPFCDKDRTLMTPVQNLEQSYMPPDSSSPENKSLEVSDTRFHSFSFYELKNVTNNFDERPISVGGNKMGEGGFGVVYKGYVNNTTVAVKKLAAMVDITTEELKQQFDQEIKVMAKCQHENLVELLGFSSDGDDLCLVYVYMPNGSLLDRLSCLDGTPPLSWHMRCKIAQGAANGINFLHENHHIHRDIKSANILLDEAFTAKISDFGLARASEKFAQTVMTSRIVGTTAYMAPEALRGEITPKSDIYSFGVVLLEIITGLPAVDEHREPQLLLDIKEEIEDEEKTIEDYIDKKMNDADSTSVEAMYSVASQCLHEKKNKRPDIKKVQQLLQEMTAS

As to `CNC(=O)c1cnc(-c2ccc3cc(C#N)cnn23)cc1N[C@H]1CCC[C@@H](O)C1` [Example 512, 6-(3-cyanopyrrolo[1,2-b]pyridazin-7-yl)-4-(((1S,3R)-3-hydroxy-cyclohexyl)amino)-N-methylnicotinamide], the EC50 in experiment [1] came out at 98 nM. Further, the midpoint of inhibition in experiment [2], the IC50, lay at 3 nM.

Take `N#Cc1cnn2c(-c3cc(N[C@H]4CCC[C@@H](O)C4)c(C(=O)NC4(C#N)CC4)cn3)ccc2c1` [Example 513, N-(1-cyanocyclopropyl)-6-(3-cyanopyrrolo[1,2-b]pyridazin-7-yl)-4-(((1S,3R)-3-hydroxy-cyclohexyl)amino) nicotinamide]: the EC50 in experiment [1] was found to be 110 nM. Besides, the IC50 in experiment [2] is 2 nM.

Regarding `N#Cc1cnn2c(-c3cc(N[C@H]4CCC[C@@H](O)C4)c(C(=O)NC4CC4)cn3)ccc2c1` [Example 514, 6-(3-cyanopyrrolo[1,2-b]pyridazin-7-yl)-N-cyclopropyl-4-(((1S,3R)-3-hydroxy-cyclohexyl)amino) nicotinamide], in experiment [1], the EC50 was found to be 213 nM. Moreover, the IC50 in experiment [2] was 9 nM.

As for `COC(C)(C)[C@H](F)CNC(=O)c1cnc(-c2ccc3cc(C#N)cnn23)cc1N[C@H]1CCC[C@@H](O)C1` [Example 518, 6-(3-cyanopyrrolo[1,2-b]pyridazin-7-yl)-N-((R)-2-fluoro-3-methoxy-3-methylbutyl)-4-(((1S,3R)-3-hydroxycyclohexyl)amino) nicotinamide], in experiment [1], the EC50 was 13 nM. The compound further had an IC50 in experiment [2] of less than 1 nM.

`N#Cc1cnn2c(-c3cc(Nc4cnn(CC(F)F)c4)c(C(=O)N[C@H]4CC[C@H](NC(=O)C5CC5)CC4)cn3)ccc2c1` [Example 519, 6-(3-cyanopyrrolo[1,2-b]pyridazin-7-yl)-N-((1r,4r)-4-(cyclopropane-carboxamido)cyclohexyl)-4-((1-(2,2-difluoroethyl)-1H-pyrazol-4-yl)amino) nicotinamide]: in experiment [1], the EC50 came out at 34 nM. The same compound had an IC50 in experiment [2] of less than 1 nM.

As to `CC(C)(O)[C@H](F)CNC(=O)c1cnc(-c2ccc3cc(C#N)cnn23)cc1N[C@H]1CC[C@@H](O)C1` [Example 520, 6-(3-cyanopyrrolo[1,2-b]pyridazin-7-yl)-N-((R)-2-fluoro-3-hydroxy-3-methylbutyl)-4-(((1S,3R)-3-hydroxycyclopentyl)amino)nicotinamide], the EC50 in experiment [1] is 45 nM. The IC50 in experiment [2] is less than 1 nM.

Take `CC(C)Nc1cc(-c2ccc3cc(C#N)cnn23)ncc1C(=O)NC1CCC(S(C)(=O)=O)CC1` (stereo not drawn) [Example 521, 6-(3-cyanopyrrolo[1,2-b]pyridazin-7-yl)-4-(iso-propylamino)-N-(4-(methylsulfonyl)cyclohexyl) nicotinamide]: the half-maximal effective concentration (EC50) in experiment [1] stood at 717 nM. Moreover, the IC50 in experiment [2] worked out at 62 nM.

Turning to `CC(C)(O)[C@H](F)CNC(=O)c1cnc(-c2ccc3cc(C#N)cnn23)cc1N[C@H]1CC[C@H](O)C1` [Example 522, 6-(3-cyanopyrrolo[1,2-b]pyridazin-7-yl)-N-((R)-2-fluoro-3-hydroxy-3-methylbutyl)-4-(((1S,3S)-3-hydroxycyclopentyl)amino) nicotinamide], in experiment [1], the EC50 is 23 nM. The IC50 in experiment [2] was less than 1 nM.

`CC(C)(O)[C@H](F)CNC(=O)c1cnc(-c2ccc3cc(C#N)cnn23)cc1NC1CCC(S(C)(=O)=O)CC1` (stereo partly drawn) [Example 523, (R)-6-(3-cyanopyrrolo[1,2-b]pyridazin-7-yl)-N-(2-fluoro-3-hydroxy-3-methylbutyl)-4-((4-(methylsulfonyl)cyclohexyl)amino)nicotinamide]: the EC50 in experiment [1] stood at 412 nM. The compound further showed an IC50 in experiment [2] of 14 nM.

Consider `CC(C)(O)[C@H](F)CNC(=O)c1cnc(-c2ccc3cc(C#N)cnn23)cc1N[C@H]1CCC[C@@H](N2CCOCC2)C1` [Example 524, 6-(3-cyanopyrrolo[1,2-b]pyridazin-7-yl)-N-((R)-2-fluoro-3-hydroxy-3-methylbutyl)-4-(((1S,3R)-3-morpholinocyclohexyl)amino)nicotinamide], for which the EC50 in experiment [1] is 97 nM. The same compound registered an IC50 in experiment [2] of 1 nM.

On to `N#Cc1cnn2c(-c3cc(NC4COC4)c(C(=O)N[C@H]4CC[C@H](NC(=O)C5CC5)CC4)cn3)ccc2c1` [Example 526, 6-(3-cyanopyrrolo[1,2-b]pyridazin-7-yl)-N-((1r,4r)-4-(cyclopropane-carboxamido)cyclohexyl)-4-(oxetan-3-ylamino) nicotinamide], for which the EC50 in experiment [1] worked out at 99 nM. In experiment [2], this compound gave an IC50 of 1 nM.

For `N#Cc1cnn2c(-c3cc(N[C@H]4CCC[C@@H](O)C4)c(C(=O)N[C@H]4CC[C@H](NC(=O)C5CC5)CC4)cn3)ccc2c1` [Example 527, 6-(3-cyanopyrrolo[1,2-b]pyridazin-7-yl)-N-((1r,4S)-4-(cyclopropane-carboxamido)cyclohexyl)-4-(((1S,3R)-3-hydroxycyclo-hexyl)amino)nicotinamide], in experiment [1], the EC50 is 16 nM. In experiment [2], this compound gave an IC50 of less than 1 nM.

On to `CC(C)(F)[C@H](F)CNC(=O)c1cnc(-c2ccc3cc(C#N)cnn23)cc1N[C@H]1CCC[C@@H](O)C1` [Example 530, 6-(3-cyanopyrrolo[1,2-b]pyridazin-7-yl)-N-((R)-2,3-difluoro-3-methylbutyl)-4-(((1S,3R)-3-hydroxy-cyclohexyl)amino)nicotinamide], for which the 50% effective concentration (EC50) in experiment [1] turned out to be 10 nM. Moreover, in experiment [2], the IC50 was less than 1 nM.

Consider `CC(C)Nc1cc(-c2ccc3cc(C#N)cnn23)ncc1C(=O)NC[C@@H](F)C(C)(C)F` [Example 531, (R)-6-(3-cyanopyrrolo[1,2-b]pyridazin-7-yl)-N-(2,3-difluoro-3-methylbutyl)-4-(isopropylamino)nicotinamide], for which the EC50 in experiment [1] amounted to 34 nM. Further, the IC50 in experiment [2] was less than 1 nM.

Consider `CC(=O)N[C@@H]1CCC[C@H](Nc2cc(-c3ccc4cc(C#N)cnn34)ncc2C(=O)NC[C@@H](F)C(C)(C)O)C1` [Example 532, 4-(((1S,3R)-3-acetamidocyclohexyl)amino)-6-(3-cyano-pyrrolo[1,2-b]pyridazin-7-yl)-N-((R)-2-fluoro-3-hydroxy-3-methylbutyl) nicotinamide], for which the EC50 in experiment [1] was found to be 122 nM. The IC50 in experiment [2] was found to be 1 nM.

For the compound `CC(C)(O)[C@H](F)CNC(=O)c1cnc(-c2ccc3cc(C#N)cnn23)cc1N[C@H]1CCC[C@@H](N)C1` [Example 533, 4-(((1S,3R)-3-aminocyclohexyl)amino)-6-(3-cyanopyrrolo[1,2-b]pyridazin-7-yl)-N-((R)-2-fluoro-3-hydroxy-3-methylbutyl)nicotinamide], the EC50 in experiment [1] is 70 nM. For the same compound, the IC50 in experiment [2] is less than 1 nM.

In the case of `CC(C)(O)[C@H](F)CNC(=O)c1cnc(-c2ccc3cc(C#N)cnn23)cc1N[C@H]1C[C@H](CNC(=O)C2CC2)C1` [Example 534, 6-(3-cyanopyrrolo[1,2-b]pyridazin-7-yl)-4-(((1r,3R)-3-(cyclopropane-carboxamidomethyl)cyclo-butyl)amino)-N-((R)-2-fluoro-3-hydroxy-3-methyl-butyl)nicotinamide], the EC50 in experiment [1] came to 26 nM. The compound further gave an IC50 in experiment [2] of less than 1 nM.

On to `CC(C)(O)[C@H](F)CNC(=O)c1cnc(-c2ccc3cc(C#N)cnn23)cc1N[C@H]1CC[C@](C)(N)CC1` [Example 535, (R)-4-((4-amino-4-methylcyclohexyl)amino)-6-(3-cyanopyrrolo[1,2-b]pyridazin-7-yl)-N-(2-fluoro-3-hydroxy-3-methylbutyl)nicotinamide], for which the EC50 in experiment [1] worked out at 999 nM. For the same compound, the half-maximal inhibitory concentration (IC50) in experiment [2] turned out to be 2 nM.

A word on the EC50: it is the concentration at which the effect is half-maximal. A word on the IC50: it is the concentration that gives 50% inhibition.
